From US12234232B2, “Aromatic heterocyclic compound with kinase inhibitory activity” (SHANGHAI ENNOVABIO PHARMACEUTICALS CO., LTD., priority 2018, dated 2025)

Key:
JAK1 [1] = target: T1, JAK1 (Homo sapiens, UniProt P23458); assay: Cellular JAK1 activity assay: IL-6-stimulated STAT3 phosphorylation in TF-1 cells; format: cell-based; set-up: endogenous in cells; host or cells: TF-1 cells (ATCC); settings: IL-6 (30 ng/mL), pSTAT3, read-out: IC50 Cell JAK1
Description: (§1) In TF-1 cells, IL-6 stimulation leads to phosphorylation of STAT3 through JAK1, while EPO stimulants phosphorylation of STAT5 via JAK2.
(§2) TF-1 cells were obtained from American Type Culture Collection (ATCC). TF-1 cells were starved overnight (cell density was 100,000 cells/well at plating) in OptiMEM medium without phenol red containing 0.5% fetal bovine serum (FBS), 0.1 mM non-essential amino acids (NEAA), 1 mM sodium pyruvate at 37° C. The compound was serially diluted in DMSO, added to TF-1 cells and incubated at 37° C. for 20 minutes. The final concentration of DMSO was 0.2%. Then, human recombinant cytokine IL-6 (30 ng/mL) or EPO (10 U/mL) was added to the wells containing TF-1 cells. After the cell plate was incubated for 30 minutes, cells were lysed, and the phosphorylation of STAT3 (IL-6) or STAT5 (EPO) in the cell lysate (pSTAT3/total STAT3 Elisa Kit: CST #7300C/CST #7305C; pSTAT5 and total STAT5 Elisa Kit: Abcam #ab205715) was measured. The IC50 value was determined as the concentration of the compound required to inhibit STAT phosphorylation by 50% relative to the measured DMSO control.

JAK3 protein = target: T2, JAK3 protein (Homo sapiens, UniProt P52333); assay: In vitro JAK3 kinase activity assay (HTRF kinEASE TK); format: biochemical; settings: 0.75 μM ATP, 25 minutes, room temperature; read-out: IC50 JAK3 (enzyme activity assay)
T2 construct: purchased Carna Biosciences
T2 sequence (P52333 1-1124): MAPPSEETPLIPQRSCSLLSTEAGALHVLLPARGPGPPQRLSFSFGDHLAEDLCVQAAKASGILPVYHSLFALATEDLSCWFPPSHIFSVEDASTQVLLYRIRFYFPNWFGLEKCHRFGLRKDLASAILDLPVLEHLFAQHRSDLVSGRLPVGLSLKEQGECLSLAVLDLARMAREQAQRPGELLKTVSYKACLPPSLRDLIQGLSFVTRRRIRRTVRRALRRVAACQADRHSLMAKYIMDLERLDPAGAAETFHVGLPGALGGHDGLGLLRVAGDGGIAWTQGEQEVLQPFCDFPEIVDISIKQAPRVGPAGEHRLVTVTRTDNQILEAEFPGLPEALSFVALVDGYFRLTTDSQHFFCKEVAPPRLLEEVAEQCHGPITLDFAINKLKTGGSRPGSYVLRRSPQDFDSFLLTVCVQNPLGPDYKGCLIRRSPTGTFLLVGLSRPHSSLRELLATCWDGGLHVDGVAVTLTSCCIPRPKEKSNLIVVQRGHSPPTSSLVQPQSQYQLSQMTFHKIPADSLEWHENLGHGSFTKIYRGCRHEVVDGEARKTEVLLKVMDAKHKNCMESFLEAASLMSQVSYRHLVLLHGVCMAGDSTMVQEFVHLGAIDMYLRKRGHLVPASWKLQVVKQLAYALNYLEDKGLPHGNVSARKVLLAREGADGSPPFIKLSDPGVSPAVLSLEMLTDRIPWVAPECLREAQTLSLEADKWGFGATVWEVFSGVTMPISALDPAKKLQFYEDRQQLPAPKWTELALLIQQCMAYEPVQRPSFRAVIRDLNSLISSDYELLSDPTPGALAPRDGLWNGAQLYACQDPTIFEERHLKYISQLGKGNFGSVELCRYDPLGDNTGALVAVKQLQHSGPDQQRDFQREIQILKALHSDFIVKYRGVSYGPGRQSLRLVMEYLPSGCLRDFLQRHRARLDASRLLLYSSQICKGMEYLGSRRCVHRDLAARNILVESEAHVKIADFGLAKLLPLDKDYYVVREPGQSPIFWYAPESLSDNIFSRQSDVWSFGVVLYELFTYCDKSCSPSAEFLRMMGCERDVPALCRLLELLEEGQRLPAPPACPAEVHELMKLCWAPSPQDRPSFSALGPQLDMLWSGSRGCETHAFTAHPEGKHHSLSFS
Description: (§3) Recombinant human JAK1 protein was purchased from Thermo Fisher. JAK2 and JAK3 proteins were purchased from Carna Biosciences. HTRF kinEASE TK kit was purchased from Cisbio Bioassays. BioTek microplate reader Synergy Neo 2 was used to read the plate.
(§4) The test compounds were of 4-fold serial dilution, and the final concentration ranged from 10 μM to 0.04 nM in duplicates for each concentration. The concentration of DMSO in the reaction system was 1%.
(§5) The reaction included 0.004 ng/gi JAK 3 protein kinase, 1 μM TK Substrate-biotin peptide substrate, 0.75 μM ATP, 1× enzymatic buffer, 5 mM MgCl2, and 1 mM DTT. The detection plate was White Proxiplate 384-Plus plate (PerkinElmer), and the mixture (10 μl) was reacted at room temperature for 25 minutes.
(§6) Reaction detection: 10 μl of detection reagent was added to the reaction plate containing final concentration of 0.125 μM of SA-XL665 and 5 μl 1×TK-Antibody. The mixture was incubated overnight at room temperature. The plate was read using Synergy Neo 2.
(§7) Data analysis: 665/620 Ratio was converted into inhibition rate (%) through the following formula: inhibition rate (%)=(Ratiomax−Ratiotest)/(Ratiomax−Ratiomin)×100%. Ratiomax is a positive control without detection compound, Ratiomin is a negative control without detection compound and kinase, Ratiotest is the detection value of each concentration of different compounds. 4 parameter curve fitting was performed to measure the IC50 (nM) values. The details are shown in, Table 1.

JAK2 [2] = target: T3, JAK2 (Homo sapiens, UniProt O60674); assay: In vitro JAK2 kinase activity assay (HTRF kinEASE TK); format: biochemical; set-up: purchased Carna Biosciences; settings: 2.7 μM ATP, 25 minutes, room temperature; read-out: IC50 JAK2 (enzyme activity assay)
T3 sequence (O60674 whole entry): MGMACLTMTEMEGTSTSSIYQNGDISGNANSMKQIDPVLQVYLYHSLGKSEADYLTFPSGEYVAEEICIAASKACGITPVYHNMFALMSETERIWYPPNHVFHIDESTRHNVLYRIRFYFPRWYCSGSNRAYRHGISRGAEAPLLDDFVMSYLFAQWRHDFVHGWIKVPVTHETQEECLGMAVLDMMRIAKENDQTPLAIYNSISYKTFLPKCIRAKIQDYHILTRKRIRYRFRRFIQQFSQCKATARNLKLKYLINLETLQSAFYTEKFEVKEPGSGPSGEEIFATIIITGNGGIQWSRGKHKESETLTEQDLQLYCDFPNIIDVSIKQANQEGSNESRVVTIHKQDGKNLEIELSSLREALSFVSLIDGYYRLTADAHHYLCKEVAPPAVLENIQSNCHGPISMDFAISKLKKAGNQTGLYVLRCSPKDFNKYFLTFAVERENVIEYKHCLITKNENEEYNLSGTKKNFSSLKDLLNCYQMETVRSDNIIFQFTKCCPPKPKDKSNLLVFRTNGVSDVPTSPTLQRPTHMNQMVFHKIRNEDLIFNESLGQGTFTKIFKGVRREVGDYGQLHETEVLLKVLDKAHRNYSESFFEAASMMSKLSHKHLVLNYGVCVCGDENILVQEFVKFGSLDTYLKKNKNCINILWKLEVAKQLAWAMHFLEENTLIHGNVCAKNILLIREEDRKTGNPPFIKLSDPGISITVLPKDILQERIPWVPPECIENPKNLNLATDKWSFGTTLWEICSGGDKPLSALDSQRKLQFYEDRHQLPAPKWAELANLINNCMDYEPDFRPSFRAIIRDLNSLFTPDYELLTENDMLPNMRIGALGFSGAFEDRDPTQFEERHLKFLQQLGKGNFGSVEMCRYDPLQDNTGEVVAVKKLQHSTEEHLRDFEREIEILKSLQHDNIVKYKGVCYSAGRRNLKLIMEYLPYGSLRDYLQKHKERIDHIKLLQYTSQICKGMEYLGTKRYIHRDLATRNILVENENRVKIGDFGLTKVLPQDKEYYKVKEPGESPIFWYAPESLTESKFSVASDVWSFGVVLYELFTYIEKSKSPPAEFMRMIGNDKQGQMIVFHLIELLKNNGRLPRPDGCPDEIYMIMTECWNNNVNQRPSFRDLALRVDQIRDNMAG
Description: as §3, §4
as §5, with “included 0.001 ng/μl” for “included 0.004 ng/gi”, “JAK 2” for “JAK 3”, “substrate, 2.7” for “substrate, 0.75”
as §6, §7

JAK2 [3] = target: T3, JAK2; assay: Cellular JAK2 activity assay: EPO-stimulated STAT5 phosphorylation in TF-1 cells; format: cell-based; set-up: endogenous in cells; host or cells: TF-1 cells (ATCC); settings: EPO (10 U/mL), pSTAT5, read-out: IC50 Cell JAK2
Description: as §1, §2

JAK1 [4] = target: T1, JAK1; assay: In vitro JAK1 kinase activity assay (HTRF kinEASE TK); format: biochemical; set-up: purchased Thermo Fisher; settings: 1.1 μM ATP, 60 minutes, room temperature; read-out: IC50 JAK1 (enzyme activity assay)
Description: as §3, §4
The reaction included 0.5 ng/μl JAK 1 protein kinase, 1 μM TK Substrate-biotin peptide substrate, 1.1 μM ATP, 1× enzymatic buffer, 5 mM MgCl2, 1 mM MnCl2, 1 mM DTT, and 2.5 nM SEB. The detection plate was White Proxiplate 384-Plus plate (PerkinElmer), and the mixture (10 μl) was reacted at room temperature for 60 minutes.
as §6, §7

T1 sequence (P23458 whole entry): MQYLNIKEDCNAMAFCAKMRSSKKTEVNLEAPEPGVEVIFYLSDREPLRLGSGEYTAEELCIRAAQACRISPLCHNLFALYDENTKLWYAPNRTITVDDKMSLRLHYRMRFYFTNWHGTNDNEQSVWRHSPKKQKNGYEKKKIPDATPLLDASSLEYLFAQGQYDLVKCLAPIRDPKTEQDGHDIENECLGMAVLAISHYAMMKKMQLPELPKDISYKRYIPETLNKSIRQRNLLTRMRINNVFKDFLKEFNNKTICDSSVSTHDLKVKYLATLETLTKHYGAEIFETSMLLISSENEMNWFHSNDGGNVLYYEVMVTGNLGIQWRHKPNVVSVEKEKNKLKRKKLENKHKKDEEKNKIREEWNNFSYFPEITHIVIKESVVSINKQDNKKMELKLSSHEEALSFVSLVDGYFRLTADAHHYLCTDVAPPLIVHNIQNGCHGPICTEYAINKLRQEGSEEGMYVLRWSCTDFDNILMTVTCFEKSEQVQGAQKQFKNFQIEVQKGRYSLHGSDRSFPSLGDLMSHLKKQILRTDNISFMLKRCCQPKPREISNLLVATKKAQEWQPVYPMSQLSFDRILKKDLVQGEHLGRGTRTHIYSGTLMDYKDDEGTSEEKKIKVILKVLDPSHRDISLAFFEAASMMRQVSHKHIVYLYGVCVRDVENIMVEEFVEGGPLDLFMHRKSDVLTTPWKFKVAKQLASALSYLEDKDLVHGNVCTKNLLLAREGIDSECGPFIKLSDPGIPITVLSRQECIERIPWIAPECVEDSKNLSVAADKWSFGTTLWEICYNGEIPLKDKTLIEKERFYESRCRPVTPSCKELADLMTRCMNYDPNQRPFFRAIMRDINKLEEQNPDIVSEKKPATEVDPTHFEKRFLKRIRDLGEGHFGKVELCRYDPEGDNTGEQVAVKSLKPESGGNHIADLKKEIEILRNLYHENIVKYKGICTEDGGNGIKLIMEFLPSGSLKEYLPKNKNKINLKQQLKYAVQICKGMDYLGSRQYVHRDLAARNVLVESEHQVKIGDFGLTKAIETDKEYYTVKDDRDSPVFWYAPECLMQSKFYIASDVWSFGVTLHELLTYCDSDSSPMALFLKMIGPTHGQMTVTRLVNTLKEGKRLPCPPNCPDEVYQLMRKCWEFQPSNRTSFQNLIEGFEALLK

Row | Structure (SMILES) | IC50 (JAK1 [1]) [µM] | IC50 (JAK3 protein) [µM] | IC50 (JAK2 [2]) [µM] | IC50 (JAK2 [3]) [µM] | IC50 (JAK1 [4]) [µM]
1 | CCC(C(=O)Nc1nccc2c(-c3nc(Nc4cccc(S(C)(=O)=O)c4F)ncc3F)c[nH]c12)N1CCN(C)CC1 (stereo not drawn) [Example 27, N-(3-(5-Fluoro-2-((2-fluoro-3-(methylsulfonyl)phenyl)amino)pyrimidin-4-yl)-1H-pyrrolo[2,3-c]pyridin-7-yl)-2-(4-methylpiperazin-1-yl) butanamide] | 0.1 to 1 | 0.5 to 10 | 0.1 to 10 | > 20 | < 0.005
2 | CCC(C(=O)Nc1nccc2c(-c3nc(Nc4cccc(NS(C)(=O)=O)c4F)ncc3C)c[nH]c12)N1CCN(C)CC1 (stereo not drawn) [Example 22, N-(3-(2-((2-Fluoro-3-(methylsulfonylamino)phenyl)amino)-5-methylpyrimidin-4-yl)-1H-pyrrolo[2,3-c]pyridin-7-yl)-2-(4-methylpiperazin-1-yl)butanamide] | 0.1 to 1 | 0.5 to 10 | < 0.1 | < 10 | 0.005 to 0.05
3 | COc1nn(C)cc1Nc1ncc(C)c(-c2c[nH]c3c(NC(=O)C(C(C)C)N4CCN(C)CC4)nccc23)n1 (stereo not drawn) [Example 6] | 0.1 to 1 | < 0.5 | < 0.1 | < 10 | 0.005 to 0.05
4 | CC[C@@H](C(=O)Nc1nccc2c(-c3nc(Nc4cn(C)nc4OC)ncc3C)c[nH]c12)N1CCN(C)CC1 [Example 3, (S)—N-(3-(2-((3-Methoxy-1-methyl-1H-pyrazol-4-yl)amino)-5-methylpyrimidin-4-yl)-1H-pyrrolo[2,3-c]pyridin-7-yl)-2-(4-methylpiperazin-1-yl)butanamide] | < 0.1 | < 0.5 | < 0.1 | < 10 | 0.005 to 0.05
5 | COc1nn(C)cc1Nc1ncc(C)c(-c2c[nH]c3c(NC(=O)[C@@H](C)N4CCOCC4)nccc23)n1 [Example 7] | 0.1 to 1 | < 0.5 | < 0.1 | 10 to 20 | 0.005 to 0.05
6 | COCCNC(=O)Nc1nccc2c(-c3nc(Nc4cccc(S(C)(=O)=O)c4F)ncc3C)c[nH]c12 [Example 32] | > 1 | < 0.5 | < 0.1 | > 20 | < 0.005
7 | Cc1cnc(Nc2cccc(S(C)(=O)=O)c2F)nc1-c1c[nH]c2c(NC(=O)NC(C)C)ncnc12 [Example 33] | > 1 | < 0.5 | 0.1 to 10 | > 20 | 0.005 to 0.05
8 | CCC(C(=O)Nc1nccc2c(-c3nc(Nc4cccc(S(C)(=O)=O)c4F)ncc3C)c[nH]c12)N1CCN(C)CC1 (stereo not drawn) [Example 19, N-(3-(2-((2-Fluoro-3-(methylsulfonyl)phenyl)amino)-5-methylpyrimidin-4-yl)-1H-pyrrolo[2,3-c]pyridin-7-yl)-2-(4-methylpiperazin-1-yl)butanamide] | 0.1 to 1 | 0.5 to 10 | 0.1 to 10 | > 20 | < 0.005
9 | CCC(C(=O)Nc1nccc2c(-c3nc(Nc4cccc(S(=O)(=O)CC)c4F)ncc3C)c[nH]c12)N1CCN(C)CC1 (stereo not drawn) [Example 28] | 0.1 to 1 | 0.5 to 10 | < 0.1 | 10 to 20 | < 0.005
10 | Cc1cnc(Nc2cccc(S(C)(=O)=O)c2F)nc1-c1c[nH]c2c(NC(=O)NC(C)C)nccc12 [Example 30, 1-(3-(2-((2-Fluoro-3-(methylsulfonyl)phenyl)amino)-5-methylpyrimidin-4-yl)-1H-pyrrolo[2,3-c]pyridin-7-yl)-3-isopropylurea] | < 0.1 | < 0.5 | 0.1 to 10 | 10 to 20 | 0.005 to 0.05
11 | CCC(C(=O)Nc1nccc2c(-c3nc(Nc4cn(C)nc4OC)ncc3C)c[nH]c12)N1CCC(N(C)C)CC1 (stereo not drawn) [Example 9] | 0.1 to 1 | < 0.5 | < 0.1 | < 10 | 0.005 to 0.05
12 | COc1nn(C)cc1Nc1ncc(C)c(-c2c[nH]c3c(Nc4cn(C)nc4OC)nccc23)n1 [Example 5, N-(3-Methoxy-1-methyl-1H-pyrazol-4-yl)-3-(2-((3-methoxy-1-methyl-1H-pyrazole-4-yl)amino)-5-methylpyrimidin-4-yl)-1H-pyrrolo[2,3-c]pyridin-7-amine] | 0.1 to 1 | < 0.5 | < 0.1 | > 20 | 0.005 to 0.05
